The text below walks through data of publication PMC11374660, “The novel family of Warbicin® compounds inhibits glucose uptake both in yeast and human cells and restrains cancer cell proliferation” (Frontiers in Oncology, 2024).

By inhibition is commonly meant how much of the control response was suppressed. By IC50 is commonly meant the concentration that inhibits the measured activity by half. By Ki is commonly meant a dissociation constant, usually derived from enzyme kinetics or from competition with a known ligand.

Where two headings read alike, the source gives them in different places.

What all share (assay type): cell-based, S. cerevisiae
The subject of assay [1] is HXK2 hxk1Δ glk1Δ yeast cells. The assay can be described thus: Sugar uptake in HXK2 hxk1Δ glk1Δ yeast cells. The procedure: Zero-trans uptake of radioactively labeled [U-^14C]glucose, [U-^14C]fructose or [U-^14C]galactose by S. cerevisiae cells was determined in accordance with previous studies ([45], [75]). Cells were grown on different carbon sources depending on the experiment. For measuring glucose uptake activity in the tps1Δ and tps1Δ hxtΔ strains, cells were grown on YP medium containing 325 mM glycerol (measurement of 10 s). Typically, for compound characterization and kinetic studies in wild type and tps1Δ strains, cells were (pre)grown on Complete Synthetic medium supplemented with 110 mM galactose (measurement of 10 s). In the experiments on the influence of hexokinase activity on the sugar uptake rate, the measurement duration was shortened to 5 s and cells were always grown on YP medium containing 325 mM glycerol and 430 mM ethanol. After harvesting, cells were washed twice with ice-cold 25 mM MES-buffer pH 6, and resuspended in their respective medium without sugar to a final concentration of 45 mg (wet weight)/mL. The amount of added tracer was estimated to give a response close to at least 1000 counts per min in order to adequately counter background noise. […] The loaded filter was transferred to a scintillation vial containing 3 mL liquid scintillation cocktail (Ultima-Flo M, Perkin Elmer) and counted using the Hidex 300 SL. […]

The subject of assay [2] is hxk2Δ hxk1Δ GLK1 yeast cells. In words: Sugar uptake in hxk2Δ hxk1Δ GLK1 yeast cells. The procedure:
(§1) Zero-trans uptake of radioactively labeled [U-^14C]glucose, [U-^14C]fructose or [U-^14C]galactose by S. cerevisiae cells was determined in accordance with previous studies ([45], [75]). Cells were grown on different carbon sources depending on the experiment. For measuring glucose uptake activity in the tps1Δ and tps1Δ hxtΔ strains, cells were grown on YP medium containing 325 mM glycerol (measurement of 10 s). Typically, for compound characterization and kinetic studies in wild type and tps1Δ strains, cells were (pre)grown on Complete Synthetic medium supplemented with 110 mM galactose (measurement of 10 s). In the experiments on the influence of hexokinase activity on the sugar uptake rate, the measurement duration was shortened to 5 s and cells were always grown on YP medium containing 325 mM glycerol and 430 mM ethanol. After harvesting, cells were washed twice with ice-cold 25 mM MES-buffer pH 6, and resuspended in their respective medium without sugar to a final concentration of 45 mg (wet weight)/mL. The amount of added tracer was estimated to give a response close to at least 1000 counts per min in order to adequately counter background noise. Cells were first preincubated for 10 min at 30°C with the compound to acclimate the cells to the temperature and to allow adequate interaction with the compound prior to uptake. Next, hexose sugar was mixed with the cell suspension, which was then incubated at 30°C for 5 or 10 s, depending on the experiment, after which the cells were rapidly filtered over a glass microfiber filter (Whatman GF/C) and washed three times with ice-cold dH2O. The loaded filter was transferred to a scintillation vial containing 3 mL liquid scintillation cocktail (Ultima-Flo M, Perkin Elmer) and counted using the Hidex 300 SL. Three blank measurements per strain were typically included to account for background signal, for which the cells were first quenched before adding the radioactive label.

Assay [3] has as its system glucose uptake by wild type yeast cells. In words: Zero-trans uptake of radioactive glucose in wild type yeast cells. Conditions: for IC50: radioactive glucose, 10 s, read-out: IC50 for inhibition of 2.5 mM glucose uptake. On the procedure: as §1
Another assay has as its system yeast tps1Δ cells. The assay can be described thus: Glu6P and Fru1,6bisP accumulation in tps1Δ yeast cells after glucose addition. Conditions: compound added at -10 min. The procedure: For measuring metabolite levels, yeast cells were typically grown in Complete Synthetic medium. […] However, when comparing the effect of Warbicin ® compounds on metabolite profiles of wild type and tps1Δ strains, cells were grown on 110 mM galactose. When grown to exponential phase, cells were harvested by centrifugation and washed twice with ice-cold 25 mM 2-(N-Morpholino)ethanesulfonic acid (MES) buffer, pH 6. Cells were suspended in Complete Synthetic medium without sugar at a concentration of 75 mg (wet weight)/mL followed by a temperature equilibration at 30°C in a shaking water bath for 30 min. Depending on the experiment, a final concentration of 2.5 mM, 7.5 mM or 10 mM glucose was added to the cell suspension. Compounds were added 10 min prior to glucose addition. […]
Through endpoint measurement of the absorbance of NADH or NADPH at 340 nm, metabolite concentrations in the yeast cells were calculated by applying Lambert’s Law. Different metabolites were measured through the use of coupled enzymatic reactions. […] Depending on the measured metabolite, different co-factors and auxiliary enzymes were added. For measuring glucose-6-phosphate, 1.07 mM NADP^+ was added to the assay buffer after which the baseline absorbance was measured. […] After stabilization of the OD340 spectra, ATP concentrations were measured by additionally adding 10 mM MgCl2 and 0.5 mM glucose to the assay buffer. […]

[4] abbreviates: Saccharomyces cerevisiae, read-out: inhibition of fructose transport.
Setting [5] is: 250 µM CCCP or 50 µM WBC-A 10 min prior, 100 mM maltose with the tracer.

Regarding `Cc1nc(Sc2nnc3n2CCCCC3)c2c(-c3cccs3)csc2n1` [WBC-A], the inhibition at 50 µM in assay [1] (setting [4]) is above 75%; in assay [2] (setting [4]) it was around 30%. In assay [1] (strain expressing Hxk2), the “1 mM glucose uptake rate” value is “strong decrease in glucose uptake rate”. In addition, the “fructose uptake at tracer concentration” value in assay [2] (setting [5]) is “little inhibition of fructose uptake”. In addition, in assay [2] (setting [5]), the “glucose uptake at tracer concentration” value is recorded as “strong inhibition of glucose uptake”. Moreover, the “type of inhibition of glucose uptake (Lineweaver-Burk)” value in assay [3] is reported as “mixed type of inhibition”. In addition, the IC50 in assay [3] (Saccharomyces cerevisiae) amounted to 17.1 µM; in assay [3], 19 µM. In addition, the Ki in assay [3] (read-out: Ki (Dixon plot) for glucose uptake) is 9.04 µM. Besides, the “hyperaccumulation of Glu6P and Fru1,6bisP after addition of 2.5 mM glucose” value in the assay on yeast tps1Δ cells is “concentration-dependent gradual drop in Glu6P and a more precipitous drop in Fru1,6bisP”.
